Source: US20240315992A1, “AMINOXY ACID-BASED ANTIBACTERIAL COMPOUNDS AND METHODS THEREOF” (The University of Hong Kong, priority 2023, published 2024)
Values after ≈ are worked out from the molar mass of the structure shown.

Key:
[1] = tested on: multidrug resistant Staphylococcus aureus Mu3; test: MIC by CLSI broth micro-dilution, MRSA Mu3; type: cell-based; settings: MRSA, CLSI broth micro-dilution, CAMH, read-out: Minimum inhibitory concentration (μM) in MRSA Mu3
Method: Aminoxy acids were synthesized by the standard peptide coupling procedures. Minimum inhibitory concentration was determined using CLSI broth micro-dilution method in 96-wells microtitre plates. Minimum inhibitory concentration is defined as the lowest concentration of the compound that inhibits visible growth of the bacteria. All experiments were performed three times. 24 compounds including aminoxy acid monomers and dipeptides have been identified to show toxicity against multidrug resistant Staphylococcus aureus Mu3 and summarized in Table 1. The minimum inhibitory concentration of compound 8 and compound 35 on other gram-positive bacteria was also evaluated and summarized in Table 2. […] As shown in FIGS. 3A-3B there are no observable hemolysis for compound 8 and compound 35 towards human red blood cell.
Bacteria were streaked from the glycerol stock into BHI agar and were incubated overnight. Single colony was picked for the overnight culture in cation-adjusted Mueller Hinton broth (CAMH), LB or BHI. The overnight culture was sub-cultured and regrew to exponential phase for the experiment.
MIC was determined by CLSI broth micro-dilution method in 96-wells microtitre plates. For compounds dissolved in water, 100 μL of 2× testing concentration was added to the first well of each column, followed by two-fold serial dilution for successive wells with 50 μL medium. For chemical compounds dissolved in DMSO, the compounds were two-fold serial diluted by DMSO in a DMSO-compatible 96-well plate. 1 μL of compound in DMSO was transferred into 96-wells microtitre plate containing 50 μL medium to give 2× testing concentration. An overnight culture of bacteria was grown into exponential phase. The bacteria culture was diluted to 1×10^6 CFU/mL and 50 μL of diluted culture were added into each well. The test plates were kept in a 37° C. incubator overnight. Optical density was recorded by DTX 880 multimode detector (Beckman Coulter, California, US). MIC is defined as the lowest concentration of the compound that inhibits visible growth of bacteria. Biological replicates were performed. CAMH was used for bacteria culture and MIC test except S. pneumoniae, L. monocytogenes, E. faecalis and M. smegmatis for which BHI was used as culture medium

[2] = tested on: Staphylococcus aureus strain USA300-LAC; test: Non-lethal bacteremia model, bacteria loads in organs; type: in vivo, Balb/c mice; settings: 10 mg/kg/day intraperitoneal, 4 days
Method: FIG. 9 are the bar graphs showing compound 8 and compound 35 reduce bacteria loads in different organs of the mice infected by Staphylococcus aureus. Grubb's test was performed to test for outliers. Statistical analysis was performed with two-sided paired t test. (*p<0.05).
Staphylococcus aureus strain USA300-LAC were cultured to the early exponential phase of growth, washed twice with sterile phosphate-buffered saline solution (PBS), and resuspended in PBS at 5×10^6 CFU/200 μL for non-lethal bacteremia model. The female Balb/c mice, 6-8 weeks, were infected intravenously (i.v.) through the tail vein with Staphylococcus aureus and randomized into three groups (N=14 for vehicle; N=12 for compound 8 and compound 35 respectively). One hour after infection, mice received intraperitoneal injections of compound 8 or compound 35 (10 mg/kg/day) or an injection of buffer (PBS with 2.5% DMSO and 2% Tween-80) as the control. The compound and injection buffer treatments were performed twice per day at 12-h intervals. The challenged mice were monitored for 4 days, at which point all the remaining mice were sacrificed. The CFU of S. aureus were determined in heart, liver, kidney and lung by plating in series dilution. Grubb's test was performed to test for outliers. Statistical analysis was performed with two-sided paired t test. (*p<0.05).

Row | MIC [1] [µM] | SMILES | bacteria load in heart [2] | bacteria load in liver [2] | bacteria load in lung [2]
1 | 3.13 (≈ 2.25 µg/mL) | O=C(NO[C@H](COCc1ccccc1)C(=O)NO[C@H](COCc1ccccc1)C(=O)Nc1ccccc1)c1cc(C(F)(F)F)cc(C(F)(F)F)c1 [Compound 12] |  |  | 
2 | 3.13 (≈ 2.16 µg/mL) | O=C(NO[C@H](COCc1ccccc1)C(=O)NO[C@@H](Cc1ccccc1)C(=O)Nc1ccccc1)c1cc(C(F)(F)F)cc(C(F)(F)F)c1 [Compound 11] |  |  | 
3 | 3.13 (≈ 2.05 µg/mL) | CC(C)C[C@@H](ONC(=O)[C@@H](COCc1ccccc1)ONC(=O)c1cc(C(F)(F)F)cc(C(F)(F)F)c1)C(=O)Nc1ccccc1 [Compound 9] |  |  | 
4 | 6.25 (≈ 4.29 µg/mL) | COc1ccc(NC(=O)[C@H](CC(C)C)ONC(=O)[C@@H](COCc2ccccc2)ONC(=O)c2cc(C(F)(F)F)cc(C(F)(F)F)c2)cc1 [Compound 29] |  |  | 

Row | SMILES | MIC [1] [µM] | bacteria load in heart [2] | bacteria load in liver [2] | bacteria load in lung [2]
5 | CC(C)C[C@H](ONC(=O)[C@@H](COCc1ccccc1)ONC(=O)c1cc(C(F)(F)F)cc(C(F)(F)F)c1)C(=O)NCc1ccccc1 [Compound 30] | > 12.5 | can reduce the bacteria load | can reduce the bacteria load | can reduce the bacteria load
